Here are results for 1 substance from US10640487B2, “Solid state forms of Nilotinib salts” (Teva Pharmaceuticals USA, Inc., priority 2016, dated 2020).

Data set [1] can be described thus: Long term and accelerated storage stability of the solid state form. The class given is physicochemical.
Data set [2] is described as follows: Thermodynamic stability (resistance to polymorphic conversion) compared with forms I and II of WO'222. The class given is physicochemical. The settings on record: compared to forms I and II of Nilotinib fumarate described in WO'222.
Excerpt: As used herein, and unless indicated otherwise, the term “thermo-dynamical stability” in relation to solid state forms of the present disclosure refers to resistance of the solid state form to polymorphic conversion under certain conditions, for example, heating, melting or dissolving. […] In some embodiments, the conversion is about 1% (w/w) to about 20% (w/w), about 1% (w/w) to about 10% (w/w) or about 1% (w/w) to about 5% (w/w).

As for “Nilotinib fumarate [Form III of Nilotinib fumarate]”, the “chemical and polymorphic stability” value in data set [1] (accelerated stability conditions at 25° C./60% RH with desiccant) was “chemically and polymorphically stable”; in data set [1] (long term stability conditions at 5° C.), “chemically and polymorphically stable”. The thermodynamic stability result in data set [2] is on record as “thermodynamically more stable”.
